Source: PubChem BioAssay (NCI)
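Dose response: 5 concentrations. Exposure: 48 h. Format: 96-well plates. Endpoint: linear interpolation; highest concentration if not reached. GI50 is the concentration that inhibits growth by half. TGI denotes the concentration required for complete inhibition of growth.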

Experiments:
Assay in all cases: DTP human tumour cell line panel, 48 h
786-0 renal = system: 786-0 renal
A498 renal = system: A498 renal
A549 NSCLC = system: A549 NSCLC
ACHN renal = system: ACHN renal
BT-549 breast = system: BT-549 breast
CAKI-1 renal = system: CAKI-1 renal
CCRF-CEM leukemia = system: CCRF-CEM leukemia
COLO 205 colon = system: COLO 205 colon
DU-145 prostate = system: DU-145 prostate
EKVX NSCLC = system: EKVX NSCLC
HCC-2998 colon = system: HCC-2998 colon
HCT-15 colon = system: HCT-15 colon
HL-60(TB) leukemia = system: HL-60(TB) leukemia
HOP-62 NSCLC = system: HOP-62 NSCLC
HOP-92 NSCLC = system: HOP-92 NSCLC
HS 578T breast = system: HS 578T breast
HT29 colon = system: HT29 colon
IGROV1 ovarian = system: IGROV1 ovarian
K-562 leukemia = system: K-562 leukemia
KM12 colon = system: KM12 colon
LOX IMVI melanoma = system: LOX IMVI melanoma
M14 melanoma = system: M14 melanoma
MALME-3M melanoma = system: MALME-3M melanoma
MCF7 breast = system: MCF7 breast
MDA-MB-231 breast = system: MDA-MB-231 breast
MDA-MB-435 = system: MDA-MB-435
MDA-MB-468 breast = system: MDA-MB-468 breast
MOLT-4 leukemia = system: MOLT-4 leukemia
NCI-H226 lung = system: NCI-H226 lung
NCI-H23 lung = system: NCI-H23 lung
NCI-H460 lung = system: NCI-H460 lung
NCI-H522 lung = system: NCI-H522 lung
NCI/ADR-RES ovarian = system: NCI/ADR-RES ovarian
OVCAR-3 ovarian = system: OVCAR-3 ovarian
OVCAR-4 ovarian = system: OVCAR-4 ovarian
OVCAR-5 ovarian = system: OVCAR-5 ovarian
OVCAR-8 ovarian = system: OVCAR-8 ovarian
PC-3 prostate = system: PC-3 prostate
RPMI-8226 leukemia = system: RPMI-8226 leukemia
RXF 393 renal = system: RXF 393 renal
SF-268 CNS = system: SF-268 CNS
SF-295 CNS = system: SF-295 CNS
SF-539 CNS = system: SF-539 CNS
SK-MEL-2 melanoma = system: SK-MEL-2 melanoma
SK-MEL-28 melanoma = system: SK-MEL-28 melanoma
SK-MEL-5 melanoma = system: SK-MEL-5 melanoma
SK-OV-3 ovarian = system: SK-OV-3 ovarian
SN12C renal = system: SN12C renal
SNB-19 CNS = system: SNB-19 CNS
SNB-75 CNS = system: SNB-75 CNS
SR leukemia = system: SR leukemia
SW-620 colon = system: SW-620 colon
T-47D breast = system: T-47D breast
TK-10 renal = system: TK-10 renal
U251 CNS = system: U251 CNS
UACC-257 melanoma = system: UACC-257 melanoma
UACC-62 melanoma = system: UACC-62 melanoma
UO-31 renal = system: UO-31 renal

With CN1CCN(c2ccc(Nc3nc(NCCCNC(=O)c4ccc(F)cc4)c4sccc4n3)cc2)CC1 the GI50 (786-0 renal) was 1.91 µM, the TGI (786-0 renal) was 5.45 µM and the GI50 (A498 renal) was 18.8 µM. The TGI (A498 renal) was 32.8 µM, the GI50 (A549 NSCLC) was 4.77 µM and the TGI (A549 NSCLC) was 22.2 µM. The GI50 (ACHN renal) was 3.04 µM, the TGI (ACHN renal) was 13.2 µM and the GI50 (BT-549 breast) was 4.39 µM. The TGI (BT-549 breast) was 16.7 µM, the GI50 (CAKI-1 renal) was 3.43 µM and the TGI (CAKI-1 renal) was 15.2 µM. The GI50 (CCRF-CEM leukemia) was 1.92 µM, the TGI (CCRF-CEM leukemia) was 4.99 µM and the GI50 (COLO 205 colon) was 5.29 µM. The TGI (COLO 205 colon) was 20.5 µM, the GI50 (DU-145 prostate) was 7.65 µM and the TGI (DU-145 prostate) was 21 µM. The GI50 (EKVX NSCLC) was 12.4 µM, the TGI (EKVX NSCLC) was 25.5 µM and the GI50 (HCC-2998 colon) was 3.38 µM. The TGI (HCC-2998 colon) was 11.9 µM, the GI50 (HCT-15 colon) was 2.31 µM and the TGI (HCT-15 colon) was 8.13 µM. The GI50 (HL-60(TB) leukemia) was 1.52 µM, the TGI (HL-60(TB) leukemia) was 3.39 µM and the GI50 (HOP-62 NSCLC) was 16.4 µM. It also gave a TGI (HOP-62 NSCLC) of 35.7 µM, a GI50 (HOP-92 NSCLC) of 7.45 µM and a TGI (HOP-92 NSCLC) of 28.2 µM. The GI50 (HS 578T breast) was 6.09 µM, the TGI (HS 578T breast) was 32.2 µM and the GI50 (HT29 colon) was 2.46 µM. For the same molecule, the TGI (HT29 colon) was 7.78 µM, the GI50 (IGROV1 ovarian) was 5.98 µM and the TGI (IGROV1 ovarian) was 19.9 µM. It also gave a GI50 (K-562 leukemia) of 1.41 µM, a TGI (K-562 leukemia) of 4.72 µM and a GI50 (KM12 colon) of 4.32 µM. The TGI (KM12 colon) was 18.2 µM, the GI50 (LOX IMVI melanoma) was 1.67 µM and the TGI (LOX IMVI melanoma) was 3.31 µM. It also gave a GI50 (M14 melanoma) of 1.83 µM, a TGI (M14 melanoma) of 3.59 µM and a GI50 (MALME-3M melanoma) of 1.79 µM. It also gave a TGI (MALME-3M melanoma) of 3.2 µM, a GI50 (MCF7 breast) of 2.67 µM and a TGI (MCF7 breast) of 11.1 µM. For the same molecule, the GI50 (MDA-MB-231 breast) was 4.15 µM, the TGI (MDA-MB-231 breast) was 14.5 µM and the GI50 (MDA-MB-435) was 4.3 µM. It also gave a TGI (MDA-MB-435) of 16.1 µM, a GI50 (MDA-MB-468 breast) of 1.46 µM and a TGI (MDA-MB-468 breast) of 4.82 µM. For the same molecule, the GI50 (MOLT-4 leukemia) was 1.67 µM, the TGI (MOLT-4 leukemia) was 5.38 µM and the GI50 (NCI-H226 lung) was 11.3 µM. For the same molecule, the TGI (NCI-H226 lung) was 23.9 µM, the GI50 (NCI-H23 lung) was 10.3 µM and the TGI (NCI-H23 lung) was 24.9 µM. For the same molecule, the GI50 (NCI-H460 lung) was 3.25 µM, the TGI (NCI-H460 lung) was 12.8 µM and the GI50 (NCI-H522 lung) was 1.77 µM. For the same molecule, the TGI (NCI-H522 lung) was 3.92 µM, the GI50 (NCI/ADR-RES ovarian) was 4.18 µM and the TGI (NCI/ADR-RES ovarian) was 24.9 µM. For the same molecule, the GI50 (OVCAR-3 ovarian) was 3.52 µM, the TGI (OVCAR-3 ovarian) was 13.3 µM and the GI50 (OVCAR-4 ovarian) was 5.84 µM. The TGI (OVCAR-4 ovarian) was 29.5 µM, the GI50 (OVCAR-5 ovarian) was 11.7 µM and the TGI (OVCAR-5 ovarian) was 26 µM. The GI50 (OVCAR-8 ovarian) was 4.14 µM, the TGI (OVCAR-8 ovarian) was 51.2 µM and the GI50 (PC-3 prostate) was 3.19 µM. The TGI (PC-3 prostate) was 16.6 µM, the GI50 (RPMI-8226 leukemia) was 1.79 µM and the TGI (RPMI-8226 leukemia) was 4.25 µM. It also gave a GI50 (RXF 393 renal) of 1.45 µM, a TGI (RXF 393 renal) of 3.25 µM and a GI50 (SF-268 CNS) of 4.38 µM. The TGI (SF-268 CNS) was 22.4 µM, the GI50 (SF-295 CNS) was 1.83 µM and the TGI (SF-295 CNS) was 4.2 µM. The GI50 (SF-539 CNS) was 1.69 µM, the TGI (SF-539 CNS) was 3.16 µM and the GI50 (SK-MEL-2 melanoma) was 14.5 µM. It also gave a TGI (SK-MEL-2 melanoma) of 28.3 µM, a GI50 (SK-MEL-28 melanoma) of 1.77 µM and a TGI (SK-MEL-28 melanoma) of 3.45 µM. The GI50 (SK-MEL-5 melanoma) was 2.08 µM, the TGI (SK-MEL-5 melanoma) was 4.95 µM and the GI50 (SK-OV-3 ovarian) was 16.5 µM. For the same molecule, the TGI (SK-OV-3 ovarian) was 34.1 µM, the GI50 (SN12C renal) was 10.5 µM and the TGI (SN12C renal) was 23.3 µM. The GI50 (SNB-19 CNS) was 7.97 µM, the TGI (SNB-19 CNS) was 20.6 µM and the GI50 (SNB-75 CNS) was 7.14 µM. It also gave a TGI (SNB-75 CNS) of 21.5 µM, a GI50 (SR leukemia) of 1.71 µM and a TGI (SR leukemia) of 4.6 µM. For the same molecule, the GI50 (SW-620 colon) was 3.04 µM, the TGI (SW-620 colon) was 10.2 µM and the GI50 (T-47D breast) was 2.64 µM. For the same molecule, the TGI (T-47D breast) was 13.7 µM, the GI50 (TK-10 renal) was 5.55 µM and the TGI (TK-10 renal) was 17.7 µM. For the same molecule, the GI50 (U251 CNS) was 3.01 µM, the TGI (U251 CNS) was 10.5 µM and the GI50 (UACC-257 melanoma) was 2.14 µM. The TGI (UACC-257 melanoma) was 4.94 µM, the GI50 (UACC-62 melanoma) was 2.04 µM and the TGI (UACC-62 melanoma) was 4.58 µM. It also gave a GI50 (UO-31 renal) of 11.7 µM and a TGI (UO-31 renal) of 23.9 µM.
